From ChEMBL document CHEMBL1201862, “PubChem BioAssay data set” (2004)
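Results reflect a 48-hour exposure of cells in 96-well plates to compound at five concentrations. Here, GI50 denotes the concentration required for 50% inhibition of growth.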 Activity calls are given as the source filed them. Cut-off read from the data, not from the text of the source: active = GI50 up to about 1.1 µM and inactive = higher.

Legend:
Experiment in all cases: DTP human tumour cell line panel, 48 h
Malme-3M = test system: Malme-3M
UACC-257 = test system: UACC-257
SR = test system: SR
UO-31 = test system: UO-31
HT-29 = test system: HT-29
ACHN = test system: ACHN
OVCAR-4 = test system: OVCAR-4
SF-295 = test system: SF-295
NCI-H23 = test system: NCI-H23
SK-MEL-28 = test system: SK-MEL-28
DU-145 = test system: DU-145
NCI/ADR-RES = test system: NCI/ADR-RES
U-251 = test system: U-251
SNB-75 = test system: SNB-75
SW-620 = test system: SW-620
CAKI-1 = test system: CAKI-1
A498 = test system: A498
HCT-15 = test system: HCT-15
MDA-MB-435 = test system: MDA-MB-435
MDA-N = test system: MDA-N

SMILES	GI50 (Malme-3M)	GI50 (UACC-257)	GI50 (SR)	GI50 (UO-31)	GI50 (HT-29)	GI50 (ACHN)	GI50 (OVCAR-4)	GI50 (SF-295)	GI50 (NCI-H23)	GI50 (SK-MEL-28)	GI50 (DU-145)	GI50 (NCI/ADR-RES)	GI50 (U-251)	GI50 (SNB-75)	GI50 (SW-620)	GI50 (CAKI-1)	GI50 (A498)	GI50 (HCT-15) [µM]	GI50 (MDA-MB-435)	GI50 (MDA-N)
CCN(CC)CCc1c2c(nc3ccccc13)C(=O)c1cccnc1C2=O	2.02 µM (inactive)	1.38 µM (inactive)	0.211 µM (active)	1.57 µM (inactive)	3.31 µM (inactive)	0.719 µM (active)	0.726 µM (active)	2.02 µM (inactive)	3.08 µM (inactive)	1.8 µM (inactive)	0.344 µM (active)	4.28 µM (inactive)	2.88 µM (inactive)	5.65 µM (inactive)	0.424 µM (active)	2.03 µM (inactive)	1.97 µM (inactive)	0.188	1.93 µM (inactive)	1.67 µM (inactive)
Cc1ccc(NCC2CC/C(=C\c3ccc(Cl)cc3)C2=O)cc1 (stereo not given)	18 µM (inactive)	17.4 µM (inactive)	3.87 µM (inactive)	21.2 µM (inactive)	12.4 µM (inactive)	10.3 µM (inactive)	24.4 µM (inactive)	28.1 µM (inactive)	20.6 µM (inactive)	15.6 µM (inactive)	30.1 µM (inactive)	33.7 µM (inactive)	17 µM (inactive)	> 100 µM (inactive)	3.67 µM (inactive)	15.2 µM (inactive)	30.7 µM (inactive)	1.94	14.4 µM (inactive)	13.6 µM (inactive)
CC(NNC(=O)c1cc[n+]([BH2-]C#N)cc1)c1ccccc1 (stereo not given)	> 100 µM (inactive)	> 100 µM (inactive)	> 100 µM (inactive)	> 100 µM (inactive)	> 100 µM (inactive)	> 100 µM (inactive)	> 100 µM (inactive)	> 100 µM (inactive)	> 100 µM (inactive)	> 100 µM (inactive)	> 100 µM (inactive)	> 100 µM (inactive)	> 100 µM (inactive)	> 100 µM (inactive)	> 100 µM (inactive)	> 100 µM (inactive)	> 100 µM (inactive)	> 100	> 100 µM (inactive)	> 100 µM (inactive)
NC(=S)N/N=C/c1c[nH]c2ccccc12	> 100 µM (inactive)	> 100 µM (inactive)	> 100 µM (inactive)	> 100 µM (inactive)	> 100 µM (inactive)	> 100 µM (inactive)	> 100 µM (inactive)	> 100 µM (inactive)	> 100 µM (inactive)	> 100 µM (inactive)	> 100 µM (inactive)	> 100 µM (inactive)	> 100 µM (inactive)	41.9 µM (inactive)	> 100 µM (inactive)	> 100 µM (inactive)	> 100 µM (inactive)	> 100	> 100 µM (inactive)	> 100 µM (inactive)
COc1ccc2[nH]cc(C=C3C(=O)NC(=S)NC3=O)c2c1	> 100 µM (inactive)	> 100 µM (inactive)	30.1 µM (inactive)	> 100 µM (inactive)	> 100 µM (inactive)	> 100 µM (inactive)	> 100 µM (inactive)	94.8 µM (inactive)	31.2 µM (inactive)	> 100 µM (inactive)	> 100 µM (inactive)	> 100 µM (inactive)	24.2 µM (inactive)	23.1 µM (inactive)	> 100 µM (inactive)	> 100 µM (inactive)	> 100 µM (inactive)	> 100	> 100 µM (inactive)	> 100 µM (inactive)
